Laboratory results as given in patent publication US20080200454A1, “CARBON-LINKED TETRAHYDRO-PYRAZOLO-PYRIDINE MODULATORS OF CATHEPSIN S” (priority 2007, published 2008).
Counter-ions that a name gives are not always drawn.

Biological target: Recombinant human cathepsin S (CatS) (Homo sapiens, UniProt P25774)
Experiment: Recombinant human cathepsin S (CatS) inhibition assay, fluorogenic substrate Z-Valine-Valine-Arginine-AMC;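 also: Baculovirus-expressed CatS in pH 5.0 sodium acetate buffer with DTT and NaCl, fluorescence read each minute over 20 min, inhibition derived from rate slope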
Conditions: not given

Sequence of Recombinant human cathepsin S (CatS) (P25774 115-331): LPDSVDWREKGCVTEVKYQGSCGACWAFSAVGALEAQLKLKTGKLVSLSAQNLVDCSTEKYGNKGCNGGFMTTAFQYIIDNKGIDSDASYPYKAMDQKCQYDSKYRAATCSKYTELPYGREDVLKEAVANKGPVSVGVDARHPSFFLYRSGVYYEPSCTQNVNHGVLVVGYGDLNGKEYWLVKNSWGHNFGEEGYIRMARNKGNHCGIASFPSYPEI

| IC50 [µM] | Compound |
| --- | --- |
| 0.03 | COC(=O)CNCc1cc(C#Cc2cc(-c3nn(CCCN4CCOCC4C)c4c3CN(C(N)=O)CC4)ccc2Cl)ccc1Cl (stereo in doubt) [Example 220, Methyl N-{[5-({5-[5-(aminocarbonyl)-1-{3-[(3S)-3-methylmorpholin-4-yl]propyl}-4,5,6,7-tetrahydro-1H-pyrazolo[4,3-c]pyridin-3-yl]-2-chlorophenyl}ethynyl)-2-chlorophenyl]methyl}glycinate] |
| 1.96 | CS(=O)(=O)N1CCc2c(c(-c3ccc(Cl)c(CCCO)c3)nn2CCCN2CCC(N3CCCC3=O)CC2)C1 [Example 313, 1-[1-(3-{3-[4-Chloro-3-(3-hydroxypropyl)phenyl]-5-(methylsulfonyl)-4,5,6,7-tetrahydro-1H-pyrazolo[4,3-c]pyridin-1-yl}propyl)piperidin-4-yl]pyrrolidin-2-one] |
| 1.04 | Cc1ccc(S(=O)(=O)NCCCc2cc(-c3nn(CCCN4CCC(N5CCCC5=O)CC4)c4c3CN(S(C)(=O)=O)CC4)ccc2Cl)cc1 [Example 92, N-{3-[2-Chloro-5-(5-methanesulfonyl-1-{3-[4-(2-oxo-pyrrolidin-1-yl)-piperidin-1-yl]-propyl}-4,5,6,7-tetrahydro-1H-pyrazolo[4,3-c]pyridin-3-yl)-phenyl]-propyl}-4-methyl-benzenesulfonamide] |
| 0.03 | CS(=O)(=O)N1CCc2c(c(-c3ccc(Cl)c(C#Cc4ccc(CN[C@H](CO)c5ccccc5)cc4)c3)nn2CCCN2CCN(c3ccccn3)CC2)C1 [Example 218, (2S)-2-[({4-[(2-Chloro-5-{5-(methylsulfonyl)-1-[3-(4-pyridin-2-ylpiperazin-1-yl)propyl]-4,5,6,7-tetrahydro-1H-pyrazolo[4,3-c]pyridin-3-yl}phenyl)ethynyl]phenyl}methyl)amino]-2-phenylethanol] |
| 0.14 | COc1ccc(C#Cc2cc(-c3nn(CCCN4CCOCC4)c4c3CN(S(C)(=O)=O)CC4)ccc2Cl)cc1CNCc1ccccc1 [Example 540, 1-[5-({2-Chloro-5-[5-(methylsulfonyl)-1-(3-morpholin-4-ylpropyl)-4,5,6,7-tetrahydro-1H-pyrazolo[4,3-c]pyridin-3-yl]phenyl}ethynyl)-2-(methyloxy)phenyl]-N-(phenylmethyl)methanamine] |
| 0.02 | CC1COCCN1CCCn1nc(-c2ccc(Cl)c(C#Cc3ccc(Cl)c(CNCC4CCCO4)c3)c2)c2c1CCN(C(N)=O)C2 (stereo in doubt) [Example 223, 3-{4-Chloro-3-[(4-chloro-3-{[(tetrahydrofuran-2-ylmethyl)amino]methyl}phenyl)ethynyl]phenyl}-1-{3-[(3S)-3-methylmorpholin-4-yl]propyl}-1,4,6,7-tetrahydro-5H-pyrazolo[4,3-c]pyridine-5-carboxamide] |
| 0.23 | CS(=O)(=O)N1CCc2c(c(-c3ccc(Cl)c(C#Cc4ccc5c(c4)CN(C4CC4)CC5)c3)nn2CCCN2CCOCC2)C1 [Example 396, 7-({2-Chloro-5-[5-(methylsulfonyl)-1-(3-morpholin-4-ylpropyl)-4,5,6,7-tetrahydro-1H-pyrazolo[4,3-c]pyridin-3-yl]phenyl}ethynyl)-2-cyclopropyl-1,2,3,4-tetrahydroisoquinoline] |
| 0.15 | CS(=O)(=O)N1CCc2c(c(-c3ccc(Cl)c(C#Cc4ccc(CC(=O)O)cc4)c3)nn2CCCN2CCOCC2)C1 [Example 15, (4-{2-Chloro-5-[5-methanesulfonyl-1-(3-morpholin-4-yl-propyl)-4,5,6,7-tetrahydro-1H-pyrazolo[4,3-c]pyridin-3-yl]-phenylethynyl}-phenyl)-acetic acid, trifluoroacetic acid salt] |
| 0.02 | CS(=O)(=O)N1CCc2c(c(-c3ccc(Cl)c(C#Cc4ccc(CNCc5ccc(Cl)cc5)cc4)c3)nn2CCCN2CCN(c3ccccc3)CC2)C1 [Example 180, 1-{4-[(2-Chloro-5-{5-(methylsulfonyl)-1-[3-(4-phenylpiperazin-1-yl)propyl]-4,5,6,7-tetrahydro-1H-pyrazolo[4,3-c]pyridin-3-yl}phenyl)ethynyl]phenyl}-N-[(4-chlorophenyl)methyl]methanamine] |
| 0.11 | CS(=O)(=O)N1CCc2c(c(-c3ccc(Cl)c(CCc4ccc(Cl)cc4)c3)nn2CC(O)CN2CCOCC2)C1 (stereo not drawn) [Example 149, 1-(3-{4-Chloro-3-[2-(4-chloro-phenyl)-ethyl]-phenyl}-5-methanesulfonyl-4,5,6,7-tetrahydro-pyrazolo[4,3-c]pyridin-1-yl)-3-morpholin-4-yl-propan-2-ol] |
| 0.08 | NC(=O)C(=O)N1CCc2c(c(-c3ccc(Cl)c(C#Cc4ccc(CNCc5ccc(Cl)cc5)cc4)c3)nn2CCCN2CCOCC2)C1 [Example 150, 2-[3-(4-Chloro-3-{[4-({[(4-chlorophenyl)methyl]amino}methyl)phenyl]ethynyl}phenyl)-1-(3-morpholin-4-ylpropyl)-1,4,6,7-tetrahydro-5H-pyrazolo[4,3-c]pyridin-5-yl]-2-oxoacetamide] |
| 0.66 | CS(=O)(=O)N1CCc2c(c(-c3ccc(Cl)c(CCc4ccc(F)cc4F)c3)nn2CCCN2CCOCC2)C1 [Example 59, 3-{4-Chloro-3-[2-(2,4-difluoro-phenyl)-ethyl]-phenyl}-5-methanesulfonyl-1-(3-morpholin-4-yl-propyl)-4,5,6,7-tetrahydro-1H-pyrazolo[4,3-c]pyridine] |
| 0.23 | CS(=O)(=O)N1CCc2c(c(-c3ccc(Cl)c(C#Cc4ccc(CNCc5ccc(Cl)cc5)cc4)c3)nn2CCCN2CCOC(CO)C2)C1 (stereo not drawn) [Example 389] |

Same assay, conditions: CatS IC50

| Compound | IC50 [µM] |
| --- | --- |
| CS(=O)(=O)N1CCc2c(c(-c3ccc(Cl)c(C#Cc4cccc(CNCc5cccnc5)c4)c3)nn2CCCN2CCOCC2)C1 [Example 521, 1-[3-({2-Chloro-5-[5-(methylsulfonyl)-1-(3-morpholin-4-ylpropyl)-4,5,6,7-tetrahydro-1H-pyrazolo[4,3-c]pyridin-3-yl]phenyl}ethynyl)phenyl]-N-(pyridin-3-ylmethyl)methanamine] | 0.37 |
| CNCCCNC(=O)c1ccc(C#Cc2cc(-c3nn(CCCN4CCCCC4)c4c3CN(S(C)(=O)=O)CC4)ccc2Cl)cc1 [Example 614, 4-({2-Chloro-5-[5-(methylsulfonyl)-1-(3-piperidin-1-ylpropyl)-4,5,6,7-tetrahydro-1H-pyrazolo[4,3-c]pyridin-3-yl]phenyl}ethynyl)-N-[3-(methylamino)propyl]benzamide] | 0.06 |
| CS(=O)(=O)N1CCc2c(c(-c3ccc(Cl)c(C#Cc4ccc(CNC5CCCC5)cc4)c3)nn2CCCN2CCOCC2)C1 [Example 325, N-{[4-({2-Chloro-5-[5-(methylsulfonyl)-1-(3-morpholin-4-ylpropyl)-4,5,6,7-tetrahydro-1H-pyrazolo[4,3-c]pyridin-3-yl]phenyl}ethynyl)phenyl]methyl}cyclopentanamine] | 1.45 |
| CC(=O)NC1CCN(CCCn2nc(-c3ccc(Cl)c(C#Cc4ccc5c(c4)CNCC5)c3)c3c2CCN(S(C)(=O)=O)C3)CC1 [Example 227, N-[1-(3-{3-[4-Chloro-3-(1,2,3,4-tetrahydroisoquinolin-7-ylethynyl)phenyl]-5-(methylsulfonyl)-4,5,6,7-tetrahydro-1H-pyrazolo[4,3-c]pyridin-1-yl}propyl)piperidin-4-yl]acetamide] | 0.04 |
| C[C@H]1COCCN1CCCn1nc(-c2ccc(Cl)c(C#Cc3ccc(Cl)c(C(=O)NC[C@@H]4CCNC4)c3)c2)c2c1CCN(C(=O)C(N)=O)C2 [Example 586, 5-{[5-(5-[Amino(oxo)acetyl]-1-{3-[(3S)-3-methylmorpholin-4-yl]propyl}-4,5,6,7-tetrahydro-1H-pyrazolo[4,3-c]pyridin-3-yl)-2-chlorophenyl]ethynyl}-2-chloro-N-[(3R)-pyrrolidin-3-ylmethyl]benzamide] | 0.02 |
| O=C(C1CCCO1)N1CCc2c(c(-c3ccc(Cl)c(C#Cc4ccc(Cl)cc4)c3)nn2CCCN2CCOCC2)C1 (stereo not drawn) [Example 141, [3-[4-Chloro-3-(4-chloro-phenylethynyl)-phenyl]-1-(3-morpholin-4-yl-propyl)-1,4,6,7-tetrahydro-pyrazolo[4,3-c]pyridin-5-yl]-(tetrahydro-furan-2-yl)-methanone] | 0.31 |
| C[C@H]1COCCN1C[C@H](O)Cn1nc(-c2ccc(Cl)c(C#Cc3ccc(CNCc4ccc(Cl)cc4)cc3)c2)c2c1CCN(C(=O)C(N)=O)C2 [Example 255, 2-{3-(4-Chloro-3-{4-[(4-chloro-benzylamino)-methyl]-phenylethynyl}-phenyl)-1-[(2S)-2-hydroxy-3-((3S)-3-methyl-morpholin-4-yl)-propyl]-1,4,6,7-tetrahydro-pyrazolo[4,3-c]pyridin-5-yl}-2-oxo-acetamide] | 0.07 |
| CS(=O)(=O)N1CCc2c(c(-c3ccc(Cl)c(C#Cc4c[nH]cn4)c3)nn2CCCN2CCOCC2)C1 [Example 441, 3-[4-Chloro-3-(1H-imidazol-4-ylethynyl)phenyl]-5-(methylsulfonyl)-1-(3-morpholin-4-ylpropyl)-4,5,6,7-tetrahydro-1H-pyrazolo[4,3-c]pyridine] | 3.06 |
| CC(C)(C)OC(=O)N1CCCN(CCCn2nc(-c3ccc(Cl)c(C#Cc4ccc(CNCc5ccc(Cl)cc5)cc4)c3)c3c2CCN(S(C)(=O)=O)C3)CC1 [Example 390, 1,1-Dimethylethyl 4-{3-[3-(4-chloro-3-{[4-({[(4-chlorophenyl)methyl]amino}methyl)phenyl]ethynyl}phenyl)-5-(methylsulfonyl)-4,5,6,7-tetrahydro-1H-pyrazolo[4,3-c]pyridin-1-yl]propyl}-1,4-diazepane-1-carboxylate] | 0.15 |

Same assay, conditions: CatS IC50, Table 2; average of results obtained

| Compound | IC50 [µM] |
| --- | --- |
| CS(=O)(=O)N1CCc2c(c(-c3ccc(Cl)c(C#Cc4cccc(C(F)(F)F)c4)c3)nn2CCCN2CCOCC2)C1 [Example 36, 3-[4-Chloro-3-(3-trifluoromethyl-phenylethynyl)-phenyl]-5-methanesulfonyl-1-(3-morpholin-4-yl-propyl)-4,5,6,7-tetrahydro-1H-pyrazolo[4,3-c]pyridine] | 1.45 |
| CS(=O)(=O)N1CCc2c(c(-c3ccc(Cl)c(C#Cc4ccc(C(=O)O)cc4)c3)nn2CCCN2CCOCC2)C1 [Example 19, 4-{2-Chloro-5-[5-methanesulfonyl-1-(3-morpholin-4-yl-propyl)-4,5,6,7-tetrahydro-1H-pyrazolo[4,3-c]pyridin-3-yl]-phenylethynyl}-benzoic acid] | 0.42 |
